From US20090018146A1, “Combination Therapy with Triterpenoid Compounds and Proteasome Inhibitors” (Research Development Corporation, priority 2005, published 2009)
Residues, ends and D or L forms follow the SMILES beside them. *: point of attachment. Cbz = O=C(OCc1ccccc1)*; CH2F = FC*

Columns and labels:
20S activity = settings: general statement on proteasome inhibitors; cited from earlier work
S. pombe = assay: Effects of avicin G on the growth of S. pombe wild type and mutants; type: cell-based, Schizosaccharomyces pombe; settings: for sensitivity to avicin G relative to wild-type: 26° C.
Description: FIGS. 10A and 10B: Effects of Avicin G on the Growth of S. pombe Mutants. Wild type, mts2-1 (mts2), mts3-1 (mts3), and nuc2-663 cells were spread on YEAU plates. Avicin G (25 jug) was then spotted onto the respective cell lawns and the plates were incubated at 26° C. for 5 days. The relative avicin G sensitivity of each strain, based on measurements of areas of avicin G-induced growth inhibition, was then determined, with wild-type cells being normalized to a value of 1 (FIG. 10A).
(§1) Standard yeast culture media and genetic methods were used (Alfa et al., 1993; Rose et al., 1990). S. pombe cultures were grown in either YEAU (0.5% yeast extract, 3% dextrose, 75 […]) or synthetic minimal medium (EMM) with appropriate supplements.

S. pombe cells = assay: Detection of ubiquitinated proteins in S. pombe; type: cell-based, Schizosaccharomyces pombe; settings: wild type S. pombe, 20 μg/ml avicin G, after 90 minutes (1.5 hours), immunoblot
Description: as §1
S. pombe cultures were lysed with glass beads in PEM buffer (100 mM PIPES, 1 mM EGTA, 1 mM MgSO4, pH 6.9) containing 4 mM benzamide, 10 μM E64, 50 μM leupeptin, 1 μM pepstatin, 1 mM phenylmethanesulfonyl fluoride, and 2 μg/ml aprotinin essentially as described in (Yen et al., 2003). Equal amounts of protein were resolved by SDS-PAGE and subsequent immunoblotting using anti-ubiquitin mouse monoclonal antibody (Stressgen Biotechnologies).

his-ub-Hsp70 = assay: In vivo ubiquitination of Hsp70 in his-ub transfected Jurkat cells; type: cell-based, human; settings: lactacystin 10 μM 30 minutes pretreatment, then avicin D 4 hours
Description: Jurkat T-cells were transfected with a plasmid pDG268 that expresses a fusion protein of histidine-tagged human ubiquitin and enhanced GFP. Transfection was performed using μm ax a Biosystems kit and their protocol. After 24 hours of transfection, cells were harvested, resuspended at a density of 10^6 cells/ml before treatment with lactacystin or avicin D.
Jurkat T cells transfected with the his-ub plasmid construct were treated with lactacystin (10 μM) or with avicin D (1 μM) for 4 hours. Cells were harvested and CE prepared as described above. […] The affinity purified histidine-tagged proteins were separated on SDS-PAGE and analyzed on western blots for ub-Hsp70 proteins.

Hsp90 = assay: Western blot of Hsp90 protein in avicin D treated Jurkat cells; type: cell-based, human; settings: lactacystin 10 μM 30 minutes, then avicin D 4 hours
Description: (§2) Jurkat T cells (2 μg/ml=1 μM), U-937 (4 μg/ml), MJ (5 μg/ml), and HH cells (2.5 μg/ml) were treated for 0-24 hours with the indicated concentrations of avicin D. PBLs from the patients or normal blood were treated with 5 μg/ml of avicin D for 24 hours.
(§3) At the end of treatments, cells were harvested, washed with sterile ice-cold PBS and cytoplasmic extracts (CE) were prepared by lysing the cells in CE buffer containing 10 mM Hepes-Cl pH 7.5, 10 mM KCl, 0.1 mM EDTA, 0.1 mM EGTA, 0.3% NP40, and a protease inhibitor cocktail (Sigma). After centrifugation and separating the supernatant (CE proteins), the pellet was resuspended in a buffer containing 20 mM Hepes-Cl, 400 mM NaCl, 1 mM EDTA, 1 mM EGTA, and protease inhibitor cocktail (Sigma). The nuclear protein extraction proceeded for 30 min. on ice followed by centrifugation at 14,000 rpm for 5 min at 4° C. The clear supernatant containing nuclear proteins (NE) was collected, glycerol (10%) was added, and proteins stored at −80° C. until use.
SDS-PAGE and immunoblot procedures were essentially performed as described (Sambrook, 1989). […] Protein bands were detected using the ECL chemiluminescence kit from Amersham as per the manufacturer's protocol.
(§4) Quantitation of proteins (western) and transcripts (RT-PCR) was performed using the NIH 1.61 image software.

XIAP = assay: Western blot of XIAP protein in Jurkat cells; type: cell-based, human
Description: as §2, §3
(§5) SDS-PAGE and immunoblot procedures were essentially performed as described (Sambrook, 1989). Briefly, cytoplasmic and nuclear proteins were resolved on SDS-PAGE, blotted on PVDF membranes (BioRad) and probed with various antibodies followed with anti-rabbit, anti-mouse antibody conjugated to horseradish peroxidase (HRP) from BioRad or HRP conjugated anti-goat antibody from Santa Cruz Biotechnology, corresponding to the primary antibody. Protein bands were detected using the ECL chemiluminescence kit from Amersham as per the manufacturer's protocol.
as §4

Hsp70 = assay: Western blot of Hsp70 protein in avicin D treated Jurkat cells; type: cell-based, human
Description: as §2, §3, §5, §4

CC(C)C[C@H](NC(=O)[C@H](Cc1ccccc1)NC(=O)c1cnccn1)B(O)O [PS341]
suppression of 20S activity (20S activity): suppress 20S activity completely

C=C[C@](C)(O)CC/C=C(\C)C(=O)O[C@H]1[C@H](O)[C@@H](O)[C@H](O[C@@](C)(C=C)CC/C=C(\CO)C(=O)O[C@H]2C[C@]3(C(=O)O[C@@H]4O[C@H](CO)[C@@H](O)[C@H](O)[C@H]4O[C@@H]4O[C@@H](C)[C@H](O[C@@H]5O[C@@H](CO)[C@H](O)[C@H]5O)[C@@H](O[C@@H]5O[C@H](CO)[C@@H](O)[C@H](O)[C@H]5O)[C@H]4O)[C@H](O)C[C@]4(C)C(=CC[C@@H]5[C@@]6(C)CC[C@H](O[C@@H]7O[C@H](CO[C@@H]8O[C@H](C)[C@H](O)[C@H](O)[C@H]8O[C@@H]8OC[C@@H](O)[C@H](O)[C@H]8O)[C@@H](O)[C@H](O)[C@H]7NC(C)=O)C(C)(C)[C@@H]6CC[C@]54C)[C@@H]3CC2(C)C)O[C@@H]1C [avicin G]
sensitivity to avicin G relative to wild-type (S. pombe; mts2-1 26S proteasome mutant, 25 μg spotted, 5 days): only slightly increased | sensitivity to avicin G relative to wild-type (S. pombe; mts3-1 26S proteasome mutant, 25 μg spotted, 5 days): only slightly increased | sensitivity to avicin G relative to wild-type (S. pombe; nuc2-663 APC mutant): markedly resistant | growth on YEAU containing 16 μg/ml avicin G (S. pombe; nuc2-663 cells, 5 days at 26° C.): grew | levels of ubiquitinated proteins (S. pombe cells): increase in the levels of ubiquitinated proteins

CC(=O)N[C@@H](CSC(=O)[C@]1([C@@H](O)C(C)C)NC(=O)[C@H](C)[C@@H]1O)C(=O)O [lactacystin, reference compound]
effect of lactacystin on the avicin-induced decrease of his-ub-Hsp70 (his-ub-Hsp70): sensitive to lactacystin | effect of lactacystin pretreatment on the avicin-induced decrease in Hsp90 protein (Hsp90): totally reversed | effect of lactacystin on the avicin induced XIAP decrease (XIAP; lactacystin 30 minutes prior to avicin D 4 hours): blocked | effect of lactacystin pretreatment on the avicin-induced decrease in Hsp70 protein (Hsp70; lactacystin 10 μM 30 minutes, then avicin D 4 hours): totally reversed

COC(=O)C[C@H](NC(=O)[C@H](C)NC(=O)[C@@H](NC(=O)OCc1ccccc1)C(C)C)C(=O)CF [zVAD-fmk, reference compound] (Cbz-Val-Ala-Asp(OMe)-CH2F)
block of avicin-induced XIAP degradation (XIAP; zVAD-FMK 50 μM prior to avicin D 4 hours): −22% | effect of caspase inhibition on the avicin-induced degradation of Hsp70 (Hsp70; zVAD-FMK 50 μM 30 minutes prior to avicin D 1 μM 4 hours): no significant effect
